Key:
Rattus norvegicus [1] = species on record: Rattus norvegicus
Description: Apparent partition coefficient was measured as histamine releasing activity in rat mast cells.

[2] = not given; remark: listed apart in the source
[3] = not given; remark: listed apart in the source
[4] = not given; remark: listed apart in the source
Rattus norvegicus [5] = species on record: Rattus norvegicus; remark: listed apart in the source
[6] = Partition coefficient (logD7.4); conditions: octanol/water, pH 7.4
[7] = Dissociation constant (pKa); conditions: octanol/water, pH 7.4

SMILES: CN(C)CCCN1c2ccccc2CCc2ccc(Cl)cc21 [CLOMIPRAMINE]
- Log k': 2.072
- Papp (Rattus norvegicus [1]): 2.8
- Log k' [2]: 1.593
- Log k' [3]: 1.479
- Log k' [4]: 1.041
- Log 1/ED50 (Rattus norvegicus [5]): 2.22
- logD [6]: 3.24
- pKa [7]: 9.5

From ChEMBL document CHEMBL1121794, “Octanol-physiological buffer distribution coefficients of lipophilic amines by reversed-phase high-performance liquid chromatography and their correlation with biological activity” (J Med Chem, 1981)
